Viability data for 78 molecules are collected here from article PMC12040169 (PLOS Biology, 2025).

What is called viability is a read-out of living cells in per cent, often relative to untreated cells.

The nature of one data set: in vitro. The settings on record: human, hela cells, % viability.
`CC(=O)Nc1ccc(-c2ccc(=O)n3c2[C@@H]2C[C@@H](CN(C4CCOCC4)C2)C3)cc1` [CBK289201]: the viability at 28.5 h, 10 µM worked out at 98%. On the same count and under the same terms, in the case of `CC1CC1C(=O)N1C2CCC1CC(O)(Cn1ccc3ccncc31)C2` (stereo not drawn) [CBK284653] it was 85.6%. With `COC(=O)c1cccc(CN2CCC3(CC2)OCCc2c3[nH]c3ccc(F)cc23)c1` [CBK040326], the viability at 28.5 h, 10 µM came to 100%.

For the molecule `Cc1cc(-c2cn3cc(C(=O)N4CCCCC4)nc3c(=O)n2C)c(C)o1` [CBK306890], the viability at 28.5 h, 10 µM amounted to 86.6%. The same measure, in the same setting: the figure for `CC(C)(C)OC(=O)N1CCN(CCOc2ccc(NC(=O)OCc3ccccc3)cc2F)CC1` [CBK016854] is 108%. The same measure, in the same setting: in the case of `O=C(O)CN1C(=O)C(=O)/C(=C(O)\C=C\c2ccccc2)C1c1ccccc1` (stereo not drawn) [CBK286551] it was 86.8%; in that of `C/C(=N/NC(=O)C(C)CN1CCOCC1)c1ccc(Cl)cc1` (stereo not drawn) [CBK016045], 81.4%. The same measure, in the same setting: in the case of `CCOC(=O)COc1ccc(C#N)cc1OCC` [CBK058937] it was 103%; in that of `O=C(Nc1cccc(-c2nnn[nH]2)c1)c1ccc(C2CCCCC2)cc1` [CBK296712], 114%; in that of `CCSc1ccc(-c2cc(N(C)c3cccc(C)c3)n3nccc3n2)cc1` [CBK037115], 100%. `CCc1c(C)nc2c(-c3ccc(OC)c(OC)c3)cnn2c1O` [CBK287962]: the viability at 28.5 h, 10 µM came to 87%. On the same count and under the same terms, in the case of `C=CCn1c(-c2sc(NC(=O)Cn3c(=O)n(CCC)c4ccccc43)nc2C)n[nH]c1=S` [CBK297890] it was 97.7%; in that of `COc1ccccc1N1CCN(C(=O)CC2(CC(=O)O)CCCC2)CC1` [CBK296137], 105%; in that of `Cc1ccc(S(=O)(=O)N(CC(=O)Nc2cccnc2)c2cccc([N+](=O)[O-])c2)cc1` [CBK266404], 86%. The same measure, in the same setting: in the case of `O=C(CC1CCN(C(=O)c2ccc3nsnc3c2)CC1)N1CCN(c2ccccc2)CC1` [CBK286266] it was 85.9%. The same measure, in the same setting: in the case of `CN(C)CCNc1nccc2sc(S(=O)(=O)NCCC3=CCCCC3)cc12` [CBK038244C] it was 108%; in that of `O=C(O)CNc1ccccc1C(=O)O` [CBK260902], 120%. Turning to `O=C(NCc1ccncc1)OCCc1ccncc1` [CBK200133], the viability at 28.5 h, 10 µM came out at 108%.

As to `N#Cc1c(F)cccc1NCc1cccnc1` [CBK057053], the viability at 28.5 h, 10 µM is 116%.

For the molecule `Cc1cn([C@H]2C[C@@H](O)[C@@H](CO)O2)c(=O)nc1N` [CBK201307], the viability at 28.5 h, 10 µM was 100%. Take `COc1ccc(C(C)c2cc3c(cc2OCC(=O)O)OCO3)cc1` (stereo not drawn) [CBK200108]: the viability at 28.5 h, 10 µM was 87.4%. The same measure, in the same setting: in the case of `O=C(O)CN(c1ccccc1[N+](=O)[O-])S(=O)(=O)c1ccccc1` [CBK263158] it was 95.6%; in that of `O=C(CCn1c(C(F)(F)F)cc2cccnc21)N1CCOCC1` [CBK284869], 96.4%; in that of `O=C(O)c1ccc(C(=O)O)c(-c2ccccc2)c1` [CBK261102], 104%. Take `CN(C(=O)CSc1ncccc1C#N)c1ccccc1` [CBK288044]: the viability at 28.5 h, 10 µM was found to be 98.3%. On to `C=CCN(C)C(=O)[C@H]1C[C@@H](O)[C@H](O)[C@@H]2N=C(Nc3ccc(Cl)cc3)S[C@@H]21` [CBK288946], for which the viability at 28.5 h, 10 µM was 87%.

For the molecule `Cn1nc(C2CCN(C(=O)c3cccs3)CC2)c2cccnc21` [CBK284925], the viability at 28.5 h, 10 µM worked out at 82.9%.

Consider `CC(=O)Nc1ccc(CN2CCC[C@H]2c2nc(-c3ccnc(NS(C)(=O)=O)c3)no2)cc1` [CBK288888], for which the viability at 28.5 h, 10 µM is 109%.

Turning to `O=C(CN1CCCC1)Nc1sc2c(c1C(=O)Nc1ccc(Br)cc1)CCC2` [CBK265060], the viability at 28.5 h, 10 µM worked out at 94.8%.

In the case of `Cc1nc(CCNC(=O)C2CC(c3cccc(F)c3)=NO2)cs1` (stereo not drawn) [CBK305798], the viability at 28.5 h, 10 µM turned out to be 106%.

In the case of `COc1cc2c(cc1CNC1CCCc3c1cnn3C)OC(C)C2` (stereo not drawn) [CBK304296C], the viability at 28.5 h, 10 µM is 94.6%. For `CN1C2CCC1CC(OC(=O)CCN1CCOCC1)C2` (stereo not drawn) [CBK261465], the viability at 28.5 h, 10 µM was found to be 97.4%. Regarding `CCC(CC)C(=O)N(C)c1c(C)nc2ccc(C(=O)NCCc3c[nH]c4ccccc34)cn12` [CBK146495], the viability at 28.5 h, 10 µM is 85.5%. Same read-out and setting: the figure for `Cc1nn(Cc2ccccc2)c(C)c1NC(=O)CSc1nc2sc3c(c2c(=O)n1C)CCC3` [CBK266069] is 96.4%.

Regarding `CC(CC(=O)NCC1(C)COC1)n1cnc2ccccc21` (stereo not drawn) [CBK281755], the viability at 28.5 h, 10 µM turned out to be 78.1%. The same measure, in the same setting: the figure for `COc1cc(/C=N/CC/N=C/c2ccc(O)c(OC)c2)ccc1O` [CBK262015] is 106%; for `C=Cn1ncc(CN2CCCC(O)(c3ccc(F)cc3)CC2)c1C` (stereo not drawn) [CBK284837] it is 89.3%. On the same count and under the same terms, the figure for `CC(=O)c1c[nH]c(=O)[nH]c1=O` [CBK012093] is 115%; for `O=C(O)c1cc2oc3ccccc3c3ccccc3oc2cc1C(=O)Nc1cccc([N+](=O)[O-])c1` [CBK265500] it is 99.1%; for `COCCn1c(CO)nnc1[C@H]1C[C@@H](NC(=O)c2ccc(F)cc2C)C1` [CBK306856] it is 94.7%.

Take `c1cc(N2CCN(CCN3CCCC3)CC2)ncc1-c1ccc2c(c1)OCO2` [CBK037769]: the viability at 28.5 h, 10 µM was 95.1%. Consider `Cc1cc(CNC(=S)Nc2ccc(S(N)(=O)=O)cc2)nn1C` [CBK267077], for which the viability at 28.5 h, 10 µM was determined as 98.7%. As to `Cc1cccn2c(=O)cc(CN3CCC(n4ccnc4)CC3)nc12` [CBK305519], the viability at 28.5 h, 10 µM was found to be 92.3%. In the case of `O=C(CSc1nnc(-c2cccnc2)n1-c1ccc(Br)cc1)Nc1ccc2c(c1)OCO2` [CBK266153], the viability at 28.5 h, 10 µM is 93.8%.

For `Cc1ccn(-c2ccc(N3CCC4(CC3)OCCO4)nn2)n1` [CBK305263], the viability at 28.5 h, 10 µM worked out at 91.5%.

`O=C(c1ccc2occc2c1)N1CCCC2(CCN(C(=O)c3cc(F)c(F)cc3F)C2)C1` (stereo not drawn) [CBK137071]: the viability at 28.5 h, 10 µM was 90.1%. Still for that read-out and setting: in the case of `COc1ccc(CN2CCN(c3ccccn3)CC2)cc1O` [CBK261570] it was 90.5%; in that of `CC(C)c1ccc(S(=O)(=O)Nc2ccc(OC(F)F)cc2)cc1` [CBK044565], 87.8%; in that of `CC(C)CCN1CCC2CN(CCCC(c3ccc(F)cc3)c3ccc(F)cc3)CCN2C1=O` (stereo not drawn) [CBK024898C], 102%. Same read-out and setting: the figure for `COc1ccc(N(C(C)C(=O)N/N=C2\C(=O)Nc3ccccc32)S(C)(=O)=O)cc1` (stereo not drawn) [CBK262408] is 98.5%; for `Cc1c(C(=O)NC2CCCN(c3ncccn3)C2)cnn1C(C)(C)C` (stereo not drawn) [CBK305652] it is 91.3%. In the case of `COc1cc(-n2cnc3cc(-c4ccc(Cl)cc4)sc3c2=O)ccc1OCCN1CCCC1` [CBK089844C], the viability at 28.5 h, 10 µM came to 40.7%. For `CCCC(=O)N(C)C1CCC2(CC1)CNC(=O)c1cc(C)ccc1O2` (stereo not drawn) [CBK281694], the viability at 28.5 h, 10 µM turned out to be 88.3%.

On to `Cc1ccc2ncc(C(=O)Nc3ccc(F)cc3F)c(=O)n2c1` [CBK287286], for which the viability at 28.5 h, 10 µM came to 95.6%. Same read-out and setting: the figure for `CC(C)N1CCC[C@H]1c1nc(-c2ccc(N3CCN(C)CC3)nc2)no1` [CBK288881] is 83.6%. Still for that read-out and setting: in the case of `O=C(O)c1ccc2c(c1)C(=O)N(c1cccc(/C=C/C(=O)c3cccc(N4C(=O)c5ccc(C(=O)O)cc5C4=O)c3)c1)C2=O` [CBK261178] it was 89.8%; in that of `c1coc(-c2nccnc2NCc2cccs2)c1` [CBK037340], 104%; in that of `Cc1ccc(C(=O)N2CCC(c3n[nH]c4ncccc34)CC2)s1` [CBK284911], 90.8%. On the same count and under the same terms, in the case of `O=C(O)CCC(=O)N1N=C(c2ccccc2)CC1c1ccc2nccnc2c1` (stereo not drawn) [CBK266650] it was 86.1%; in that of `CC(C)(N)CNC(=O)c1cnc2cc(Cl)ccc2c1O` [CBK107360], 101%. Regarding `CC(C)(C)C(=O)NCCCC(=O)Nc1nc2ccc(Oc3ccccc3)cc2s1` [CBK296652], the viability at 28.5 h, 10 µM is 97.9%.

Take `CCc1nc2c(Oc3nc4ccccc4s3)cccn2c1N(C=O)Cc1ccc(OC)cc1` [CBK147819]: the viability at 28.5 h, 10 µM came out at 107%.

For the molecule `Oc1cc(C(F)(F)F)nc(NCc2ccncc2)n1` [CBK003563], the viability at 28.5 h, 10 µM amounted to 85.5%. With `Cc1ccc(C(=O)N2C[C@H]3CC[C@](O)(c4ccc(F)cc4)[C@H]3C2)o1` [CBK285267], the viability at 28.5 h, 10 µM came to 95%. Regarding `CC(NC(=O)CS(=O)(=O)Cc1ccc(C#N)cc1)c1ccc(C#N)cc1` (stereo not drawn) [CBK297791], the viability at 28.5 h, 10 µM worked out at 91.1%. The same measure, in the same setting: in the case of `CCCCCCN(CCN1CCOCC1)C(=O)Nc1cc(C)on1` [CBK305147] it was 84.7%. The same measure, in the same setting: the figure for `Cc1cccc(CN2CCN(c3ccccc3C(O)c3nccn3C)CC2)c1` (stereo not drawn) [CBK286441] is 88.5%. Still for that read-out and setting: in the case of `CC(C)OC(=O)N1CCC(N(C)Cc2ccc(-c3ccc(S(C)(=O)=O)cc3)nc2)CC1` [CBK165261T] it was 121%; in that of `O=C(Cc1ccc(F)cc1)Nc1cccc(-c2noc(-c3ccc(F)cc3)n2)c1` [CBK299821], 89%; in that of `CCc1nn(CC(=O)N(C)C)c(=O)c2cc3sc(C)cc3n12` [CBK284102], 110%. `O=C(Cn1ncn2nc(-c3ccccc3)cc2c1=O)Nc1ccc(F)cc1` [CBK287759]: the viability at 28.5 h, 10 µM is 85.8%.

Regarding `O=C(O)CC1COCCN1Cc1ccc(Cn2cccn2)cc1` (stereo not drawn) [CBK306827], the viability at 28.5 h, 10 µM is 89.1%. The same measure, in the same setting: the figure for `O=C(NCCc1c[nH]cn1)N1CCCN(Cc2ccc(F)cc2)CC1` [CBK307323] is 111%; for `CN(C)S(=O)(=O)N1CC2(CCN(C(=O)[C@@H]3CN(C(=O)C(C)(C)NC(=O)OC(C)(C)C)C[C@H]3c3cc4ccccc4o3)CC2)c2ccccc21` [CBK014088] it is 89%.

For the molecule `COc1ccc(-c2nc(NS(C)(=O)=O)cc3cccnc23)cc1C` [CBK085677], the viability at 28.5 h, 10 µM was found to be 85.5%. Same read-out and setting: in the case of `CC1CN(C(=O)c2ncoc2-c2ccc(F)cc2)CC(C)O1` (stereo not drawn) [CBK282379] it was 90%; in that of `Cc1cc(CNC(=O)C(C)Cn2cccn2)on1` (stereo not drawn) [CBK281486], 90.9%.

The data set is the same for the next values; noted with them: human, hela cells, % viability, bulk resorufin, single well.
In the case of `Cc1ccc(Cl)cc1N1CCNCC1` [CBK013402], the viability at 28.5 h, 10 µM was 94.6%.
